The first test relates to Pfeiffer cells, lymphoma cells having EZH2 mutation (A677G). The test is described as follows: Proliferation inhibition of cells of hematologic malignancies (CCK-8, 11 days). Conditions: 11 days culture, read-out: Cell proliferation inhibitory effect (IC50). The test is classed as cell-based. As for the experimental part: The growth inhibitory activity of 1,3-benzodioxole derivative compounds represented by chemical formula I of the present invention against Pfeiffer cells, which are lymphoma cells having EZH2 mutation (A677G), was evaluated.
Pfeiffer was cultured using RPMI1640 containing 10% fetal bovine serum. The cells were inoculated into wells of a 96-well culture dish at 10,000 cells each, and cultured for 11 days after treating with the test material for each concentration. For 11 days, the test material was replaced every three to four days. After culturing, the cells were treated with a cell counting kit-8 (CCK-8) reagent for each well, absorbance was measured at 450 nm, and IC50 values for cell proliferation were obtained through curve fitting of non-linear regression in the GraphPad program (GraphPad Prism 5.0 software).
On to `CSc1cc(C)[nH]c(=O)c1CNC(=O)c1cc(-c2ccc(N3CCOCC3)nc2)c2c(c1C)OC(C)(C1CCN(CC(F)F)CC1)O2` (single isomer, unassigned) [Compound 64, 2-(1-(2,2-difluoroethyl)piperidin-4-yl)-2,4-dimethyl-N-((6-methyl-4-(methylthio)-2-oxo-1,2-dihydropyridin-3-yl)methyl)-7-(6-morpholinopyridin-3-yl)benzo[d][1,3]dioxole-5-carboxamide], for which the IC50 is at most 10 nM. In the case of `CSc1cc(C)[nH]c(=O)c1CNC(=O)c1cc(-c2ccc(N3CCOCC3)nc2)c2c(c1C)OC(C)(C1CCN(CC(F)F)CC1)O2` (single isomer, unassigned) [Compound 65, 2-(1-(2,2-difluoroethyl)piperidin-4-yl)-2,4-dimethyl-N-((6-methyl-4-(methylthio)-2-oxo-1,2-dihydropyridin-3-yl)methyl)-7-(6-morpholinopyridin-3-yl)benzo[d][1,3]dioxole-5-carboxamide], the IC50 was at least 100 nM.

Turning to `CCN1CCC(C2(C)Oc3c(-c4ccc(N5CCOCC5)nc4)cc(C(=O)NCc4c(SC)cc(C)[nH]c4=O)c(C)c3O2)CC1` (single isomer, unassigned) [Compound 66, 2-(1-ethylpiperidin-4-yl)-2,4-dimethyl-N-((6-methyl-4-(methylthio)-2-oxo-1,2-dihydropyridin-3-yl)methyl)-7-(6-morpholinopyridin-3-yl)benzo[d][1,3]dioxole-5-carboxamide], the IC50 was at most 10 nM. For `CCN1CCC(C2(C)Oc3c(-c4ccc(N5CCOCC5)nc4)cc(C(=O)NCc4c(SC)cc(C)[nH]c4=O)c(C)c3O2)CC1` (single isomer, unassigned) [Compound 67, 2-(1-ethylpiperidin-4-yl)-2,4-dimethyl-N-((6-methyl-4-(methylthio)-2-oxo-1,2-dihydropyridin-3-yl)methyl)-7-(6-morpholinopyridin-3-yl)benzo[d][1,3]dioxole-5-carboxamide], the IC50 is at least 100 nM. With `CSc1cc(C)[nH]c(=O)c1CNC(=O)c1cc(-c2cnc(N3CCOCC3)nc2)c2c(c1C)OC(C)(C1CCN(CC(F)F)CC1)O2` (single isomer, unassigned) [Compound 71, 2-(1-(2,2-difluoroethyl)piperidin-4-yl)-2,4-dimethyl-N-((6-methyl-4-(methylthio)-2-oxo-1,2-dihydropyridin-3-yl)methyl)-7-(2-morpholinopyrimidin-5-yl)benzo[d][1,3]dioxole-5-carboxamide], the IC50 is at most 10 nM. For `CSc1cc(C)[nH]c(=O)c1CNC(=O)c1cc(-c2cnc(N3CCOCC3)nc2)c2c(c1C)OC(C)(C1CCN(CC(F)F)CC1)O2` (single isomer, unassigned) [Compound 72, 2-(1-(2,2-difluoroethyl)piperidin-4-yl)-2,4-dimethyl-N-((6-methyl-4-(methylthio)-2-oxo-1,2-dihydropyridin-3-yl)methyl)-7-(2-morpholinopyrimidin-5-yl)benzo[d][1,3]dioxole-5-carboxamide], the IC50 is at least 100 nM. As to `CCN1CCC(C2(C)Oc3c(-c4cnc(N5CCOCC5)nc4)cc(C(=O)NCc4c(SC)cc(C)[nH]c4=O)c(C)c3O2)CC1` (single isomer, unassigned) [Compound 73, 2-(1-ethylpiperidin-4-yl)-2,4-dimethyl-N-((6-methyl-4-(methylthio)-2-oxo-1,2-dihydropyridin-3-yl)methyl)-7-(2-morpholinopyrimidin-5-yl)benzo[d][1,3]dioxole-5-carboxamide], the IC50 was at most 10 nM. Take `CCN1CCN(c2ncc(-c3cc(C(=O)NCc4c(SC)cc(C)[nH]c4=O)c(C)c4c3OC(C)(C3CCN(CC(F)(F)F)CC3)O4)cn2)CC1` (single isomer, unassigned) [Compound 76, 7-(2-(4-ethylpiperazin-1-yl)pyrimidin-5-yl)-2,4-dimethyl-N-((6-methyl-4-(methylthio)-2-oxo-1,2-dihydropyridin-3-yl)methyl)-2-(1-(2,2,2-trifluoroethyl)piperidin-4-yl)benzo[d][1,3]dioxole-5-carboxamide]: the IC50 was at most 10 nM. `CCN1CCN(c2ncc(-c3cc(C(=O)NCc4c(SC)cc(C)[nH]c4=O)c(C)c4c3OC(C)(C3CCN(CC(F)(F)F)CC3)O4)cn2)CC1` (single isomer, unassigned) [Compound 77, 7-(2-(4-ethylpiperazin-1-yl)pyrimidin-5-yl)-2,4-dimethyl-N-((6-methyl-4-(methylthio)-2-oxo-1,2-dihydropyridin-3-yl)methyl)-2-(1-(2,2,2-trifluoroethyl)piperidin-4-yl)benzo[d][1,3]dioxole-5-carboxamide]: the IC50 is at least 100 nM. On the same count and under the same terms, in the case of `CCN(C)c1ncc(-c2cc(C(=O)NCc3c(SC)cc(C)[nH]c3=O)c(C)c3c2OC(C)(C2CCN(CC(F)F)CC2)O3)cn1` (single isomer, unassigned) [Compound 82, 2-(1-(2,2-difluoroethyl)piperidin-4-yl)-7-(2-(ethyl(methyl)amino)pyrimidin-5-yl)-2,4-dimethyl-N-((6-methyl-4-(methylthio)-2-oxo-1,2-dihydropyridin-3-yl)methyl)benzo[d][1,3]dioxole-5-carboxamide] it was 10 to 100 nM; in that of `CCN1CCC(C2(C)Oc3c(-c4cnc(N(C)CC)nc4)cc(C(=O)NCc4c(SC)cc(C)[nH]c4=O)c(C)c3O2)CC1` (single isomer, unassigned) [Compound 83, 7-(2-(ethyl(methyl)amino)pyrimidin-5-yl)-2-(1-ethylpiperidin-4-yl)-2,4-dimethyl-N-((6-methyl-4-(methylthio)-2-oxo-1,2-dihydropyridin-3-yl)methyl)benzo[d][1,3]dioxole-5-carboxamide], at most 10 nM. `CCN1CCC(C2(C)Oc3c(-c4cnc(N(C)CC)nc4)cc(C(=O)NCc4c(SC)cc(C)[nH]c4=O)c(C)c3O2)CC1` (single isomer, unassigned) [Compound 84, 7-(2-(ethyl(methyl)amino)pyrimidin-5-yl)-2-(1-ethylpiperidin-4-yl)-2,4-dimethyl-N-((6-methyl-4-(methylthio)-2-oxo-1,2-dihydropyridin-3-yl)methyl)benzo[d][1,3]dioxole-5-carboxamide]: the IC50 is at least 100 nM.

Staying with this test, now noted: Homo sapiens, Pfeiffer, 264 h, 11 days culture, read-out: Cell proliferation inhibitory effect (IC50).
Regarding `CCN(C)c1ncc(-c2cc(C(=O)NCc3c(SC)cc(C)[nH]c3=O)c(C)c3c2OC(C)(C2CCN(CC(F)F)CC2)O3)cn1` (single isomer, unassigned) [Compound 81, 2-(1-(2,2-difluoroethyl)piperidin-4-yl)-7-(2-(ethyl(methyl)amino)pyrimidin-5-yl)-2,4-dimethyl-N-((6-methyl-4-(methylthio)-2-oxo-1,2-dihydropyridin-3-yl)methyl)benzo[d][1,3]dioxole-5-carboxamide], the IC50 was at most 10 nM. As to `CCN(C)c1ccc(-c2cc(C(=O)NCc3c(SC)cc(C)[nH]c3=O)c(C)c3c2OC(C)(C2CCN(CC(F)(F)F)CC2)O3)cn1` (single isomer, unassigned) [Compound 86, 7-(6-(ethyl(methyl)amino)pyridin-3-yl)-2,4-dimethyl-N-((6-methyl-4-(methylthio)-2-oxo-1,2-dihydropyridin-3-yl)methyl)-2-(1-(2,2,2-trifluoroethyl)piperidin-4-yl)benzo[d][1,3]dioxole-5-carboxamide], the IC50 is at most 10 nM.
